From patent publication US20260376293A1, “METHODS FOR STUDYING GPR158 PHARMACOLOGY AND IDENTIFICATION OF ITS LIGANDS” (UNIVERSITY OF FLORIDA RESEARCH FOUNDATION, INCORPORATED, priority 2022, published 2026)

Target: T1, GPR158 (Homo sapiens, UniProt Q5T848)
T1 sequence (Q5T848 24-1215): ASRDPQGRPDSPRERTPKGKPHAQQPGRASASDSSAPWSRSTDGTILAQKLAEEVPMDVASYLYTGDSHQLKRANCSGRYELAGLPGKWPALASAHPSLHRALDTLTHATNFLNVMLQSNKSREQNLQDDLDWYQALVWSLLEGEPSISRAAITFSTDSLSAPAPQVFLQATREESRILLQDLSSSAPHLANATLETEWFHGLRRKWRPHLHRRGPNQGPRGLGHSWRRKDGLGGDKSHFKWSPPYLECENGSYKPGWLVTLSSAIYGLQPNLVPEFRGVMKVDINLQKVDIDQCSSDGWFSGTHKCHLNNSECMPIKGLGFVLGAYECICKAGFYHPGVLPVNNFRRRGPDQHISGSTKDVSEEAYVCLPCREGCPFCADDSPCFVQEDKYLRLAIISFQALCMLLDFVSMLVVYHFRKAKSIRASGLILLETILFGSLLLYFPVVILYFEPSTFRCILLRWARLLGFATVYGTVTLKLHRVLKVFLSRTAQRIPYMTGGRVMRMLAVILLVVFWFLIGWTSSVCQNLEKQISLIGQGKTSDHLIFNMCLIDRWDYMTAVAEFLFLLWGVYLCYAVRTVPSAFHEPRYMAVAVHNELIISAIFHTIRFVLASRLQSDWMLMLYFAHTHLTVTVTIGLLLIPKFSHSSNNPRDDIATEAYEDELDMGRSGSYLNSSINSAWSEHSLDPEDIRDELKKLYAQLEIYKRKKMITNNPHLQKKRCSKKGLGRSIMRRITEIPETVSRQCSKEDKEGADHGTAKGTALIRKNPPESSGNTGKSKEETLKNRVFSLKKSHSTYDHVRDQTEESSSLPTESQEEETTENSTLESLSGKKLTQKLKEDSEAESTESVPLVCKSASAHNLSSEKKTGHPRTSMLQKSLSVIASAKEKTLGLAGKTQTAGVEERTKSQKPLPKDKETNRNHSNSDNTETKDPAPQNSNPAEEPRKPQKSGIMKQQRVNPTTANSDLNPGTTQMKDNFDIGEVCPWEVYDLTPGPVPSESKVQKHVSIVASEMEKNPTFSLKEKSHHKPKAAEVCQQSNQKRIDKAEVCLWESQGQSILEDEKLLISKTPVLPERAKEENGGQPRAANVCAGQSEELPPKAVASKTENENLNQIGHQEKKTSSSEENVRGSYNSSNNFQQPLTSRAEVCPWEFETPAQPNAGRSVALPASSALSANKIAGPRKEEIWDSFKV
Assay: Whole cell radioligand binding assay
Parameters: expressed in transfected cells; host or cells: HEK293 (HEK293FT in the BRET methods)
Conditions: HEK293 cells, across concentrations
Experimental: FIG. 7. Direct binding of glycine in whole cell radiolabeled assay a) Schematics of the radioligand binding assay. b) Quantification of ^3H-glycine binding to cells. Count Per minute (CPM) are measured and plotted. Data shown mean of 3 independent experiments error bars are s.e.m. values, n=3, *p=0.0403, ***p<0.001, ****p<0.0001 (two-way ANOVA) Columns with no fill (Control cells), columns with angled-line fill (GPR158 cells).
Next, the inventors performed radioligand binding assays examining binding of [^3H]-labeled glycine to HEK293 cells expressing GPR158 (FIG. 7A). […] The inventors have then isolated cellular membranes and conducted classical radioligand titration experiments (FIG. 9D). The inventors detected saturable [^3H]-glycine binding to membranes containing GPR158 is substantial excess over linear non-specific binding to membranes devoid of GPR158 (FIG. 9E). Scatchard analysis (FIG. 9F) estimated Kd of GPR158 for glycine to be ~3 μM. The inventors further performed binding competition experiments directly comparing the ability of glycine and taurine to displace [^3H]-labeled glycine bound to GPR158 (FIG. 8).
Whole cell binding was performed using cDNA of GPR158-venus or each GPR158-venus mutant or empty pcDNA3.1+ for ctrl cells. […] Finally radioactivity was measured using the liquid scintillation analyzer Tri-Carb 4910 TR.

NCC(=O)O [^3H-glycine, [^3H]-glycine]
binding to GPR158-expressing cells: significant binding
